Results: PMC11864037 (RSC Advances, 2025)
Read-outs that look alike come from different tables or passages of the source.

Columns and labels:
SARS-CoV-2 M^pro = SARS-CoV-2 M^pro (Severe acute respiratory syndrome coronavirus 2, UniProt P0DTD1); assay: biochemical; conditions: for inhibition against M^pro: concentration not given
M^pro = conditions: repurposed drug; cited from earlier work
[1] = MTT cytotoxic assay in Vero-E6 cells; type: cell-based; conditions: African green monkey
SARS-CoV-2 = conditions: cited from earlier work

Row | SMILES | IC50 (SARS-CoV-2 M^pro) [µM] | other results
1 | O=C(CN1CCn2c(nnc2C(F)(F)F)C1)SC1=NC(c2ccc(C(F)(F)F)cc2)C(C(=O)N[C@@H](Cc2ccc(O)cc2)C(=O)O)=C(C(F)(F)F)N1 (stereo partly drawn) [12e, (6-(Trifluoromethyl)-2-((2-(3-(trifluoromethyl)-5,6-dihydro-[1,2,4]triazolo[4,3-a]-pyrazin-7(8H)-yl)acetyl)thio)-4-(4-(trifluoromethyl)phenyl)-1,4-dihydropyrimidine-5-carbonyl)-L-tyrosine] | 0.73 ± 0.04 | 
2 | CC(C)(C)NC(=O)N[C@H](C(=O)N1C[C@H]2[C@@H]([C@H]1C(=O)NC(CC1CCC1)C(=O)C(N)=O)C2(C)C)C(C)(C)C (stereo partly drawn) [boceprevir] |  | IC50 (M^pro): 4.13 µM
3 | CS(=O)(=O)n1cc2c(n1)CN(CC(=O)SC1=NC(c3ccc(C(F)(F)F)cc3)C(C(=O)N[C@@H](Cc3ccc(O)cc3)C(=O)O)=C(C(F)(F)F)N1)C2 (stereo partly drawn) [12i, (2-((2-(2-(Methylsulfonyl)-2,6-dihydropyrrolo[3,4-c]pyrazol-5(4H)-yl)acetyl)thio)-6-(trifluoromethyl)-4-(4-(trifluoromethyl)phenyl)-1,4-dihydropyrimidine-5-carbonyl)-L-tyrosine] |  | CC50 at 48 h [1]: 243 µM
4 | CC(C)(C)[C@H](NC(=O)C(F)(F)F)C(=O)N1C[C@H]2[C@@H]([C@H]1C(=O)N[C@H](C#N)C[C@@H]1CCNC1=O)C2(C)C [nirmatrelvir] |  | EC50 (SARS-CoV-2; read-out: antiviral activity EC50): 0.074 µM
5 | COC(=O)c1ccc(C2N=C(SC(=O)CN3CCn4c(nnc4C(F)(F)F)C3)NC(C(F)(F)F)=C2C(=O)N[C@@H](Cc2c[nH]cn2)C(=O)O)cc1 (stereo partly drawn) [12l, (4-(4-(Methoxycarbonyl)phenyl)-6-(trifluoromethyl)-2-((2-(3-(trifluoromethyl)-5,6-dihydro-[1,2,4]triazolo[4,3-a]pyrazin-7(8H)-yl)acetyl)thio)-1,4-dihydropyrimidine-5-carbonyl)-L-histidine] | 0.054 | inhibition against M^pro (SARS-CoV-2 M^pro): over 50%; CC50 at 48 h [1]: 198 µM
6 | CS(=O)(=O)n1cc2c(n1)CN(CC(=O)SC1=NC(c3ccc(C(F)(F)F)cc3)C(C(=O)N[C@@H](Cc3c[nH]cn3)C(=O)O)=C(C(F)(F)F)N1)C2 (stereo partly drawn) [12h, (2-((2-(2-(Methylsulfonyl)-2,6-dihydropyrrolo[3,4-c]pyrazol-5(4H)-yl)acetyl)thio)-6-(trifluoromethyl)-4-(4-(trifluoromethyl)phenyl)-1,4-dihydropyrimidine-5-carbonyl)histidine] | 16.3 | 
7 | O=C(O)C[C@H](NC(=O)C1=C(C(F)(F)F)NC(=S)NC1c1ccc(C(F)(F)F)cc1)C(=O)O (stereo partly drawn) [8b] | 44.7 ± 1.36 | 
8 | CS(=O)(=O)n1cc2c(n1)CN(CC(=O)SC1=NC(c3ccc([N+](=O)[O-])cc3)C(C(=O)Nc3ccc(S(=O)(=O)O)cc3)=C(C(F)(F)F)N1)C2 (stereo not drawn) [12k, 4-(2-((2-(2-(Methylsulfonyl)-2,6-dihydropyrrolo[3,4-c]pyrazol-5(4H)-yl)acetyl)thio)-4-(4-nitrophenyl)-6-(trifluoromethyl)-1,4-dihydropyrimidine-5-carboxamido)benzene-sulfonic acid] | 0.146 | CC50 at 48 h [1]: 239 µM
9 | CS(=O)(=O)n1cc2c(n1)CN(CC(=O)SC1=NC(c3ccc([N+](=O)[O-])cc3)C(C(=O)N[C@@H](CCC(=O)O)C(=O)O)=C(C(F)(F)F)N1)C2 (stereo partly drawn) [12j, (2-((2-(2-(Methylsulfonyl)-2,6-dihydropyrrolo[3,4-c]pyrazol-5(4H)-yl)acetyl)thio)-4-(4-nitrophenyl)-6-(trifluoromethyl)-1,4-dihydropyrimidine-5-carbonyl)-L-glutamic acid] | 0.063 | inhibition against M^pro (SARS-CoV-2 M^pro): over 50%; CC50 at 48 h [1]: 211 µM
10 | NC1CCCN(CC(=O)SC2=NC(c3ccc(C(F)(F)F)cc3)C(C(=O)N[C@@H](Cc3ccc(O)cc3)C(=O)O)=C(C(F)(F)F)N2)C1 (stereo partly drawn) [12g, (2-((2-(3-Aminopiperidin-1-yl)acetyl)thio)-6-(trifluoromethyl)-4-(4-(trifluoromethyl)-phenyl)-1,4-dihydropyrimidine-5-carbonyl)-L-tyrosine] | 0.21 ± 0.01 | 
11 | O=C(Nc1ccc(S(=O)(=O)O)cc1)C1=C(C(F)(F)F)NC(=S)NC1c1ccc(C(F)(F)F)cc1 (stereo not drawn) [8c] | 28.2 | 
12 | O=C(O)CC[C@H](NC(=O)C1=C(C(F)(F)F)NC(SC(=O)CN2CCn3c(nnc3C(F)(F)F)C2)=NC1c1ccc(C(F)(F)F)cc1)C(=O)O (stereo partly drawn) [12a, (6-(Trifluoromethyl)-2-((2-(3-(trifluoromethyl)-5,6-dihydro-[1,2,4]triazolo[4,3-a]-pyrazin-7(8H)-yl)acetyl)thio)-4-(4 (trifluoromethyl)phenyl)-1,4-dihydropyrimidine-5-carbonyl)-L-glutamic acid] | 0.15 | 
13 | Cn1cnc(Cn2c(=O)[nH]/c(=N\c3cc4cn(C)nc4cc3Cl)n(Cc3cc(F)c(F)cc3F)c2=O)n1 [ensitrelvir] |  | EC50 (SARS-CoV-2): 0.37 µM
14 | COC(=O)c1ccc(C2NC(=S)NC(C(F)(F)F)=C2C(=O)N[C@@H](Cc2c[nH]cn2)C(=O)O)cc1 (stereo partly drawn) [8h] | 34.9 | 
15 | O=C(CN1CCn2c(nnc2C(F)(F)F)C1)SC1=NC(c2ccc(C(F)(F)F)cc2)C(C(=O)N[C@@H](Cc2c[nH]cn2)C(=O)O)=C(C(F)(F)F)N1 (stereo partly drawn) [12d, (6-(Trifluoromethyl)-2-((2-(3-(trifluoromethyl)-5,6-dihydro-[1,2,4]triazolo[4,3-a]pyrazin-7(8H)-yl)acetyl)thio)-4-(4-(trifluoromethyl)phenyl)-1,4-dihydropyrimidine-5-carbonyl)histidine] | 14.4 | 
16 | O=C(N[C@@H](Cc1c[nH]cn1)C(=O)O)C1=C(C(F)(F)F)NC(=S)NC1c1ccc(C(F)(F)F)cc1 (stereo partly drawn) [8d] | 30.7 | 
17 | O=C(O)CC[C@H](NC(=O)C1=C(C(F)(F)F)NC(=S)NC1c1ccc(C(F)(F)F)cc1)C(=O)O (stereo partly drawn) [8a] | 23.2 | 
18 | O=C(N[C@@H](Cc1ccc(O)cc1)C(=O)O)C1=C(C(F)(F)F)NC(=S)NC1c1ccc(C(F)(F)F)cc1 (stereo partly drawn) [8e] | 25.3 | 
19 | O=C(O)CC[C@H](NC(=O)C1=C(C(F)(F)F)NC(=S)NC1c1ccc([N+](=O)[O-])cc1)C(=O)O (stereo partly drawn) [8f] | 36.8 | 
